Test results: patent US20110152093A1, “Herbicidal compositions comprising flufenacet” (Bayer CropScience AG, priority 2009, published 2011)

Tests used:
Assay type in all cases: in vivo
STEME (Stellaria media) = test: Action under various soil conditions (soil types), test method 7; conditions: IU/EC73 soil versus IU soil; g of AS/ha: (A) 90, (B) 1200, (C) 140, (A)+(B)+(C) 90 + 1200 + 140
Description: (§1) In the standard design of the test, seeds of various broad-leaved weed and weed grass biotypes (origins) were sown in a 8-13 cm diameter pot filled with natural soil of a standard field soil (loamy silt; non-sterile) and covered with a covering soil layer of about 1 cm. The pots were then cultivated in a greenhouse (12-16 h of light, temperature day 20-22° C., night 15-18° C.) until the time of application. The pots were treated on a laboratory track sprayer with spray liquors comprising the compositions according to the invention, mixtures of the prior art or components used individually. Application of the active compounds or active compound combinations formulated as WG, WP, EC or otherwise was carried out at the appropriate growth stages of the plants. The application rate for the spray application was 100-600 l of water/ha. After the treatment, the plants were returned to the greenhouses.
(§2) About 3 weeks after the application, the soil action or/and foliar action was assessed visually according to a scale of 0-100% in comparison to an untreated comparative group: 0%=no noticeable effect compared to the untreated comparative group; 100%=full effect compared to the untreated comparative group.
(§3) (notes: the term “seeds” also includes vegetative propagation forms such as, for example, rhizome pieces; abbreviations used: h light=hours of illumination, g of AS/ha=gram of active substance per hectare, l/ha=liter per hectare, S=sensitive, R=resistant) • 1. Pre-emergence action against weeds: seeds of various broad-leaved weed and weed grass biotypes (origins) were sown in a 8-13 cm diameter pot filled with natural soil of a standard field soil (loamy silt; non-sterile) and covered with a covering soil layer of about 1 cm. The pots were then cultivated in a greenhouse (12-16 h of light, temperature day 20-22° C., night 15-18° C.) until the time of application. The pots were treated at the BBCH stage 00-10 of the seeds/plants on a laboratory track sprayer with spray liquors comprising the compositions according to the invention, mixtures or components used individually, as WG, WP, EC or other formulations. The application rate for the spray application was 100-600 l of water/ha. After the treatment, the plants were returned to the greenhouses and, when required, treated with fertilizer and watered. • 2. Post-emergence action against weeds: seeds of various broad-leaved weed and weed grass biotypes (origins) were sown in a 8-13 cm diameter pot filled with natural soil of a standard field soil (loamy silt; non-sterile) and covered with a covering soil layer of about 1 cm. The pots were then cultivated in a greenhouse (12-16 h of light, temperature day 20-22° C., night 15-18° C.) until the time of application. The pots were treated at various BBCH stages between 11-25 of the seeds/plants, i.e. generally between two to three weeks after the start of the cultivation, on a laboratory track sprayer with spray liquors comprising the compositions according to the invention, mixtures or components used individually, as WG, WP, EC or other formulations. The application rate for the spray application was 100-600 l of water/ha. After the treatment, the plants were returned to the greenhouses and, when required, treated with fertilizer and watered. • 3. Selective pre-emergence action: seeds of various crop species (origins) were sown in a 8-13 cm diameter pot filled with natural soil of a standard field soil (loamy silt; non-sterile) and covered with a covering soil layer of about 1 cm. The pots were then cultivated in a greenhouse (12-16 h of light, temperature day 20-22° C., night 15-18° C.) until the time of application. The pots were treated at the BBCH stage 00-10 of the seeds/plants on a laboratory track sprayer with spray liquors comprising the compositions according to the invention, mixtures or components used individually, as WG, WP, EC or other formulations. The application rate for the spray application was 100-600 l of water/ha. […]

[1] = test system: MATCH (Matricaria chamomilla); test: as above; conditions: g of AS/ha: (A) 90, (B) 1200, (C) 140, (A)+(B)+(C) 90 + 1200 + 140
Description: as §1, §2, §3

[2] = test system: HORVS (Hordeum vulgare, summer barley); test: Action under various soil conditions (soil types), test method 7, crop compatibility; conditions: g of AS/ha: (A) 90, (B) 1200, (C) 140, (A)+(B)+(C) 90 + 1200 + 140
Description: as §1, §2
(§4) (notes: the term “seeds” also includes vegetative propagation forms such as, for example, rhizome pieces; abbreviations used: h light=hours of illumination, g of AS/ha=gram of active substance per hectare, l/ha=liter per hectare, S=sensitive, R=resistant) • 1. Pre-emergence action against weeds: seeds of various broad-leaved weed and weed grass biotypes (origins) were sown in a 8-13 cm diameter pot filled with natural soil of a standard field soil (loamy silt; non-sterile) and covered with a covering soil layer of about 1 cm. The pots were then cultivated in a greenhouse (12-16 h of light, temperature day 20-22° C., night 15-18° C.) until the time of application. The pots were treated at the BBCH stage 00-10 of the seeds/plants on a laboratory track sprayer with spray liquors comprising the compositions according to the invention, mixtures or components used individually, as WG, WP, EC or other formulations. The application rate for the spray application was 100-600 l of water/ha. After the treatment, the plants were returned to the greenhouses and, when required, treated with fertilizer and watered. • 2. Post-emergence action against weeds: seeds of various broad-leaved weed and weed grass biotypes (origins) were sown in a 8-13 cm diameter pot filled with natural soil of a standard field soil (loamy silt; non-sterile) and covered with a covering soil layer of about 1 cm. The pots were then cultivated in a greenhouse (12-16 h of light, temperature day 20-22° C., night 15-18° C.) until the time of application. The pots were treated at various BBCH stages between 11-25 of the seeds/plants, i.e. generally between two to three weeks after the start of the cultivation, on a laboratory track sprayer with spray liquors comprising the compositions according to the invention, mixtures or components used individually, as WG, WP, EC or other formulations. The application rate for the spray application was 100-600 l of water/ha. After the treatment, the plants were returned to the greenhouses and, when required, treated with fertilizer and watered. • 3. […]

LOLPE (Lolium perenne) [3] = test: Pre-sowing application action against weeds (7 days prior to sowing), test method 5; conditions: application 7 days prior to sowing; g of AS/ha: (A) 90, (B) 1200, (C) 140, (A)+(B)+(C) 90 + 1200 + 140
Description: as §1, §2
(notes: the term “seeds” also includes vegetative propagation forms such as, for example, rhizome pieces; abbreviations used: h light=hours of illumination, g of AS/ha=gram of active substance per hectare, l/ha=liter per hectare, S=sensitive, R=resistant) • 1. Pre-emergence action against weeds: seeds of various broad-leaved weed and weed grass biotypes (origins) were sown in a 8-13 cm diameter pot filled with natural soil of a standard field soil (loamy silt; non-sterile) and covered with a covering soil layer of about 1 cm. The pots were then cultivated in a greenhouse (12-16 h of light, temperature day 20-22° C., night 15-18° C.) until the time of application. The pots were treated at the BBCH stage 00-10 of the seeds/plants on a laboratory track sprayer with spray liquors comprising the compositions according to the invention, mixtures or components used individually, as WG, WP, EC or other formulations. The application rate for the spray application was 100-600 l of water/ha. After the treatment, the plants were returned to the greenhouses and, when required, treated with fertilizer and watered. • 2. Post-emergence action against weeds: seeds of various broad-leaved weed and weed grass biotypes (origins) were sown in a 8-13 cm diameter pot filled with natural soil of a standard field soil (loamy silt; non-sterile) and covered with a covering soil layer of about 1 cm. The pots were then cultivated in a greenhouse (12-16 h of light, temperature day 20-22° C., night 15-18° C.) until the time of application. […]

LOLPE (Lolium perenne) [4] = test: PE action under various irrigation conditions, test method 6; conditions: PE application, g of AS/ha: (A) 90, (B) 1200, (C) 140, (A)+(B)+(C) 90 + 1200 + 140
Description: as §1, §2, §3

[5] = test system: MATCH (Matricaria chamomilla); test: as above; conditions: PE application; irrigation from below; g of AS/ha: (A) 90, (B) 1200, (C) 140, (A)+(B)+(C) 90 + 1200 + 140
Description: as §1, §2, §3

[6] = test system: HORVS (Hordeum vulgare, summer barley); test: Selective post-emergence action (crop compatibility), greenhouse trial, test method 4; conditions: PO application; g of AS/ha: (A) 240, (B) 1200, (C) 140, (A)+(B)+(C) 240 + 1200 + 140
Description: as §1, §2
(notes: the term “seeds” also includes vegetative propagation forms such as, for example, rhizome pieces; abbreviations used: h light=hours of illumination, g of AS/ha=gram of active substance per hectare, l/ha=liter per hectare, S=sensitive, R=resistant) • 1. Pre-emergence action against weeds: seeds of various broad-leaved weed and weed grass biotypes (origins) were sown in a 8-13 cm diameter pot filled with natural soil of a standard field soil (loamy silt; non-sterile) and covered with a covering soil layer of about 1 cm. The pots were then cultivated in a greenhouse (12-16 h of light, temperature day 20-22° C., night 15-18° C.) until the time of application. […]

AVEFA (Avena fatua) = test: PE action at different soil pH values, test method 10; conditions: PE application, g of AS/ha: (A) 90, (B) 1200, (C) 140, (A)+(B)+(C) 90 + 1200 + 140
Description: as §1, §2

POAAN (Poa annua) = test: Post-emergence (PO) action against weeds, greenhouse trial, test method 2; conditions: PO application; g of AS/ha: (A) 240, (B) 1200, (C) 140, (A)+(B)+(C) 240 + 1200 + 140
Description: as §1, §2, §4

VIOAR (Viola arvensis) = test: as above; conditions: PO application; g of AS/ha: (A) 240, (B) 1200, (C) 140, (A)+(B)+(C) 240 + 1200 + 140
Description: as §1, §2, §4

[7] = test system: ALOMY resistant (Alopecurus myosuroides); test: PE action on resistant weed biotypes, test method 8; conditions: PE application; g of AS/ha: (A) 90, (B) 1200, (C) 140, (A)+(B)+(C) 90 + 1200 + 140, iodosulfuron 10
Description: as §1, §2, §3

[8] = test system: ALOMY sensitive (Alopecurus myosuroides); test: as above; conditions: PE application; g of AS/ha: (A) 90, (B) 1200, (C) 140, (A)+(B)+(C) 90 + 1200 + 140, iodosulfuron 10
Description: as §1, §2, §3

CSc1nnc(C(C)(C)C)c(=O)n1N [(C) metribuzin, 4-amino-6-(1,1-dimethylethyl)-3-(methylthio)-1,2,4-triazin-5(4H)-one]
Difference of the soil types, STEME (STEME (Stellaria media)): −70% | activity MATCH IU soil ([1]; IU soil): 0% | Difference of the soil types, MATCH ([1]; IU/EC73 soil versus IU soil): +15% | activity MATCH IU/EC73 soil ([1]; IU/EC73 soil): 15% | activity HORVS IU soil (crop plant) ([2]; IU soil): 20% | Difference of the soil types, HORVS ([2]; IU/EC73 soil versus IU soil): −20% | activity LOLPE (LOLPE (Lolium perenne) [3]): 100% | activity LOLPE (LOLPE (Lolium perenne) [4]; irrigation from above): 55% | activity LOLPE (LOLPE (Lolium perenne) [4]; irrigation from below): 48% | activity MATCH [5]: 60% | activity HORVS (crop plant; visual, scale 0-100%) [6]: 70% | activity AVEFA pH 7.4 (AVEFA (Avena fatua); soil pH 7.4): 90% | activity AVEFA pH 8.4 (AVEFA (Avena fatua); soil pH 8.4): 90% | activity POAAN (visual, scale 0-100%) (POAAN (Poa annua)): 79% | activity VIOAR (visual, scale 0-100%) (VIOAR (Viola arvensis)): 90% | activity ALOMY resistant [7]: 80% | activity ALOMY sensitive [8]: 85%

COc1nc(C)nc(NC(=O)NS(=O)(=O)c2cc(I)ccc2C(=O)O)n1 [(C)^1 iodosulfuron, iodosulfuron]
activity ALOMY resistant [7]: 40% | activity ALOMY sensitive [8]: 90%
